Laboratory results reported in US20100174066A1, “PROCESS FOR PREPARING CRYSTALLINE FORM I OF OLANZAPINE” (priority 2005, published 2010).

Test: Heat sensitivity of olanzapine Form I wet crystals dried in an air tray drier; Form II content quantified by XRPD
Type: physicochemical
Settings: 8 hours, LOQ about 0.5% by weight
Procedure: Olanzapine Form I wet crystals obtained by following the process similar to that given in Example 1 were taken and dried at different temperatures in an air tray drier for 8 hours to check the impact on the crystalline purity of Form I obtained. The results are tabulated below in Table 1:
497.5 mg of olanzapine Form I and 2.5 mg of olanzapine Form II (weight ratio of olanzapine Form Ito Form II of 99.5:0.5) were weighed and mixed with 50.0 mg of lithium fluoride. The mixture was mixed and ground three times using a mortar and pestle made of agate to get a homogeneous fine powder. A maximum quantity of the finely ground sample was packed in a sample holder and this was used as the standard for powder X-ray diffraction analysis.
500 mg of olanzapine Form I test sample was weighed and mixed with 50 mg of lithium fluoride. The mixture was mixed and ground three times using a mortar and pestle made of agate to get a homogeneous fine powder. A maximum quantity of the finely ground sample was packed in a sample holder and this was used as the test sample for the analysis.
The standard and the test sample were analyzed and the intensity at 8.60° (2θ) in the diffractogram of the test sample was compared with respect to that of the 0.5% standard. If the test sample intensity at 8.60° (2θ) is more than that of the 0.5% standard, then the presence of Form II in Form I is more than 0.5%. If the test sample intensity at 8.60° (2θ) is less than that of the 0.5% standard, then the presence of Form II in Form I is less than 0.5%.

Cc1cc2c(s1)Nc1ccccc1N=C2N1CCN(C)CC1 [Olanzapine Form I, 2-methyl-4-(4-methyl-1-piperazinyl)-10H-thieno[2,3-b][1,5]benzodiazepine]
Form II content (%) (drying temperature 60 °C): Less than 0.5%
Form II content (%) (drying temperature 75-80 °C): Less than 0.5%
Form II content (%) (drying temperature 100 °C): Less than 0.5%
Form II content (%) (drying temperature 125 °C): More than 0.5%
Form II content (%) (drying temperature 150 °C): More than 0.5%
Form II content (%) (drying temperature 180 °C): More than 0.5%
